{
  "source": "patent US20260115209A1",
  "about": "“COMBINATION THERAPY INCLUDING COX-2 INHIBITOR FOR THE TREATMENT OF CANCER” (THE REGENTS OF THE UNIVERSITY OF CALIFORNIA, priority 2022, published 2026)",
  "test_in_all_cases": "Cell viability assay (CellTiter-Glo), GI50, 3-day treatment",
  "format_in_all_cases": "cell-based",
  "key": {"LIM2405": {"system": "LIM2405", "settings": "72 h; LIM2405 (BRAF^V600E CRC); 50% growth inhibition after 3 days of treatment compared to control; read-out: GI50 concentrations", "procedure": "(§1) To assess the growth/survival response of cell lines to single or combinatorial drug treatments, we used CellTiter-Glo cell viability assay (Promega; cat #G7571). Cell culture and luminescence readouts were performed in 96- and 384-well plates after 3-day treatments. GI50 corresponds to the concentration of a given drug that causes 50% inhibition of cell growth (GI50). The effects of drug combinations on cell growth were assessed by calculating fold change in VEM-sensitivity and combination index (C.I.) that were experimentally measured from ≥9 individual datapoints around drugs' GI50, i.e. at GI50, 0.5×GI50, 2×GI50 concentrations of each drug per drug combination experiment. To address the particular effects of some drug treatments on some cell lines, the choice of experimental datapoints centered around drugs' GI50 effects was adjusted by including individual datapoints ranging from ≥GI25 to ≤GI75, leading to calculate fold change in VEM-sensitivity and combination index (C.I.) from 12 to 20 individual datapoints, as previously explained (7)."}, "HT29": {"system": "HT29", "settings": "Homo sapiens, HT-29, 72 h; HT29 (BRAF^V600E CRC); 50% growth inhibition after 3 days of treatment compared to control; read-out: GI50 concentrations", "procedure": "as §1"}, "KM20": {"system": "KM20", "settings": "72 h; KM20 (BRAF^V600E CRC); 50% growth inhibition after 3 days of treatment compared to control; read-out: GI50 concentrations", "procedure": "as §1"}, "LS411N": {"system": "LS411N", "settings": "Homo sapiens, LS-411N, 72 h; LS411N (BRAF^V600E CRC); 50% growth inhibition after 3 days of treatment compared to control; read-out: GI50 concentrations", "procedure": "as §1"}, "VACO432": {"system": "VACO432", "settings": "72 h; VACO432 (BRAF^V600E CRC); 50% growth inhibition after 3 days of treatment compared to control; read-out: GI50 concentrations", "procedure": "as §1"}, "Sk-Mel-28": {"system": "Sk-Mel-28", "settings": "Homo sapiens, 72 h; Sk-Mel-28 (BRAF^V600E melanoma); 50% growth inhibition after 3 days of treatment compared to control; read-out: GI50 concentrations", "procedure": "as §1"}, "A375": {"system": "A375", "settings": "Homo sapiens, A-375, 72 h; A375 (BRAF^V600E melanoma); 50% growth inhibition after 3 days of treatment compared to control; read-out: GI50 concentrations", "procedure": "as §1"}, "SNUC5": {"system": "SNUC5", "settings": "72 h; SNUC5 (BRAF^V600E CRC); 50% growth inhibition after 3 days of treatment compared to control; read-out: GI50 concentrations", "procedure": "as §1"}, "WiDr": {"system": "WiDr", "settings": "Homo sapiens, 72 h; WiDr (BRAF^V600E CRC); 50% growth inhibition after 3 days of treatment compared to control; read-out: GI50 concentrations", "procedure": "as §1"}, "OUMS23": {"system": "OUMS23", "settings": "OUMS-23, 72 h; OUMS23 (CRC MAP3K8^amp); 50% growth inhibition after 3 days of treatment compared to control; read-out: GI50 concentrations", "procedure": "as §1"}},
  "data": [
    {"compound": "CCCS(=O)(=O)Nc1ccc(F)c(C(=O)c2c[nH]c3ncc(-c4ccc(Cl)cc4)cc23)c1F", "note": "[vemurafenib, N-[3-[5-(4-chlorophenyl)-1H-pyrrolo[2,3-b]pyridine-3-carbonyl]-2,4-difluorophenyl]propane-1-sulfonamide]", "values": [
      {"measurement": "GI50", "setting": "LIM2405", "value": 150, "unit": "nM"},
      {"measurement": "GI50", "setting": "HT29", "value": 1750, "unit": "nM"},
      {"measurement": "GI50", "setting": "KM20", "value": 2000, "unit": "nM"},
      {"measurement": "GI50", "setting": "LS411N", "value": 1450, "unit": "nM"},
      {"measurement": "GI50", "setting": "VACO432", "value": 1150, "unit": "nM"},
      {"measurement": "GI50", "setting": "Sk-Mel-28", "value": 150, "unit": "nM"},
      {"measurement": "GI50", "setting": "A375", "value": 10, "unit": "nM"},
      {"measurement": "GI50", "setting": "SNUC5", "value": 2250, "unit": "nM"},
      {"measurement": "GI50", "setting": "WiDr", "value": 1500, "unit": "nM"},
      {"measurement": "GI50", "setting": "OUMS23", "value": 1400, "unit": "nM"}
    ]}
  ]
}
